Laboratory results taken from ChEMBL document CHEMBL1828590 (J Med Chem, 2011).
pIC50, pKi: −log10 of the molar value.

Assays:
[1] = Apparent permeability from basolateral to apical side of human Caco2 cells; format: ADME, cell-based; settings: Caco-2
[2] = Half life in rat liver microsomes; format: ADME, Microsome
[3] = Half life in dog liver microsomes; format: ADME, Canis lupus familiaris, Microsome
[4] = 1-Octanol-sodium phosphate buffer distribution coefficient, log D of the compound at pH 7.4; format: physicochemical
[5] = Kinetic solubility of the compound at pH 7 with […] DMSO; format: physicochemical; settings: buffer, read-out: Kinetic_solubility
[6] = Half life in human liver microsomes; format: ADME, Microsome
[7] = (§1) Half life in mouse liver microsomes; format: ADME, Microsome; settings: liver microsomes
[8] = Apparent permeability from apical to basolateral side of human Caco2 cells; format: ADME, cell-based; settings: Caco-2
Histone deacetylase 4 = Histone deacetylase 4 (Homo sapiens, UniProt P56524)
Sequence of Histone deacetylase 4 (P56524 whole entry): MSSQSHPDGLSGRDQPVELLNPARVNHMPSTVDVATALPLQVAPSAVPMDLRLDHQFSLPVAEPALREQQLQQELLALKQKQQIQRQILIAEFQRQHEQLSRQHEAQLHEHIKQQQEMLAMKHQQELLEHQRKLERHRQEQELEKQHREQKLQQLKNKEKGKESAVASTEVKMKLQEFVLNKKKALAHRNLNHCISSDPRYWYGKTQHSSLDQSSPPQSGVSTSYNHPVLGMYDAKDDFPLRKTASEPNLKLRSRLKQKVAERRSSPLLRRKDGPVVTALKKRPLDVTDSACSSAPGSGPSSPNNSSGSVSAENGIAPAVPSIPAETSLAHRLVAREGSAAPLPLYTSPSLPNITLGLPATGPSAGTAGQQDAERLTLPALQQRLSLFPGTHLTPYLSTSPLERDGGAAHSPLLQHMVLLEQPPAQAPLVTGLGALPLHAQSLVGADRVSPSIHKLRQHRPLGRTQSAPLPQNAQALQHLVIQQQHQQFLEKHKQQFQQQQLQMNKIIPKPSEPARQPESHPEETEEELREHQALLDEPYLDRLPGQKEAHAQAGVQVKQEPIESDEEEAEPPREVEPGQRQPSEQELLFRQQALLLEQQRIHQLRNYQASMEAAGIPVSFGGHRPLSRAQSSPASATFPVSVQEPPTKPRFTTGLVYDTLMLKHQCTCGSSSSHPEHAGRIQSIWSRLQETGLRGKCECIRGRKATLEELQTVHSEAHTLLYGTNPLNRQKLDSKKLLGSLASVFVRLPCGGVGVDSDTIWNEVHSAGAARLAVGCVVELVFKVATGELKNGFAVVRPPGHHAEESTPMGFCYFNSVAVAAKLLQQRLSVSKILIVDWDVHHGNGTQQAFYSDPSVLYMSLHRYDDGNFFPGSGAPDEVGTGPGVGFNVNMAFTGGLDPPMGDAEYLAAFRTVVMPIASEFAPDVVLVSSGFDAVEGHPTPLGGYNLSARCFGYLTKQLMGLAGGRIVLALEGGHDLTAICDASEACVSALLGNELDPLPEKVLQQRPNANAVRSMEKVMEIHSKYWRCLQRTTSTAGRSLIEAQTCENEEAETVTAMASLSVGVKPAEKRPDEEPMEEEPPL
Description: Competitive inhibition of HDAC4 using KI-104 as substrate by fluorescence assay

Histone deacetylase 3 = Histone deacetylase 3 (Homo sapiens, UniProt O15379)
Sequence of Histone deacetylase 3 (O15379 whole entry): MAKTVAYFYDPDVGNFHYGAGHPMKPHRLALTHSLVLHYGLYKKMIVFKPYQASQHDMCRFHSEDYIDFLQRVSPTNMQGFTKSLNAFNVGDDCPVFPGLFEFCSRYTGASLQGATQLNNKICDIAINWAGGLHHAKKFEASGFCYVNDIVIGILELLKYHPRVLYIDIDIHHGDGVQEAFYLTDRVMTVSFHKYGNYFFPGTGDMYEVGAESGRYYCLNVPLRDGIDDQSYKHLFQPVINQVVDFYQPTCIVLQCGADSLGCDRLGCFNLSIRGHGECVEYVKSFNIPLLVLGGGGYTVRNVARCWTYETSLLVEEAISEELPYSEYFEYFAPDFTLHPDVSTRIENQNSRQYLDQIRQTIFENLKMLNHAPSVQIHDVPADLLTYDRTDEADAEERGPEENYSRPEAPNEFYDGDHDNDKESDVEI
Description: Competitive inhibition of HDAC3 using KI-104 as substrate by fluorescence assay

COLO 205 = assay: Antiproliferative activity against human COLO205 cells after 96 hrs by celltiter 96 assay; format: functional, cell-based; settings: COLO 205, 96 h
[9] = molecular target: T1, Protein deacetylase HDAC6 (Homo sapiens, UniProt Q9UBN7)
T1 sequence (Q9UBN7 whole entry): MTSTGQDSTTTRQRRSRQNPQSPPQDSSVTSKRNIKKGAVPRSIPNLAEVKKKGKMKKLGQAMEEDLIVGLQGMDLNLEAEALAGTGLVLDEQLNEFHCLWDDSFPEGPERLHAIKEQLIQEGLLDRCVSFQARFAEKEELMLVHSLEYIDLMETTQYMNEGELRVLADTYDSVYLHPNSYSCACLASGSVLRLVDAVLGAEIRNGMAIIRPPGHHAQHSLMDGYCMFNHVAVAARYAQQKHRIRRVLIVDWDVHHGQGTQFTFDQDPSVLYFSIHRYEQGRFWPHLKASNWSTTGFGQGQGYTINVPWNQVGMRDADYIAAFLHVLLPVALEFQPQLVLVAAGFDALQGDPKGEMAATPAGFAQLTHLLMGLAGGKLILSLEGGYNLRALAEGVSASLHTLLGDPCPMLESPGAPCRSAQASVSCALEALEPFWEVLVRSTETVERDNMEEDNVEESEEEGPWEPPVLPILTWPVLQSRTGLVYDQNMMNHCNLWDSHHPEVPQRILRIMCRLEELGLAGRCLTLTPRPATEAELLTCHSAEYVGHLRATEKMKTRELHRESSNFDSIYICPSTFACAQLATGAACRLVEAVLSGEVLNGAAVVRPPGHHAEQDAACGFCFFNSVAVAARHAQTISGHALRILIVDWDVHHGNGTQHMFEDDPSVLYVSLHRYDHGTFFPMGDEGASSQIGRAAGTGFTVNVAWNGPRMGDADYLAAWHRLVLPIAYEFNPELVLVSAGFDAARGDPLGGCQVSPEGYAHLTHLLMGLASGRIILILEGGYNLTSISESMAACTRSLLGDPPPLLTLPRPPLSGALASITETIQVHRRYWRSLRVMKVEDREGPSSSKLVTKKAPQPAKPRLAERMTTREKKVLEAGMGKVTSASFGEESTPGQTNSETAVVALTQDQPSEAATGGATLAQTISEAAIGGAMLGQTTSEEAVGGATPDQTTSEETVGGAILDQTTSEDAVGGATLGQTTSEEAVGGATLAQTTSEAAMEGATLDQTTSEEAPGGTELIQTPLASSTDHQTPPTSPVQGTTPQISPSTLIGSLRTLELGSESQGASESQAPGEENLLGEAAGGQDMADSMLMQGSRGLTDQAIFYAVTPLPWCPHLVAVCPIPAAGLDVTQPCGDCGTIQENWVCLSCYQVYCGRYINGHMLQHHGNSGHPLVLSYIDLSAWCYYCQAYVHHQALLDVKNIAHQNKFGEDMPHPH
Description: Competitive inhibition of HDAC6 using KI-104 as substrate by fluorescence assay

HCT-116 [10] = assay: Antiproliferative activity against human HCT116 cells after 96 hrs by celltiter 96 assay; format: functional, cell-based; settings: HCT-116, 96 h
Histone deacetylase 8 = molecular target: T2, Histone deacetylase 8 (Homo sapiens, UniProt Q9BY41)
T2 sequence (Q9BY41 whole entry): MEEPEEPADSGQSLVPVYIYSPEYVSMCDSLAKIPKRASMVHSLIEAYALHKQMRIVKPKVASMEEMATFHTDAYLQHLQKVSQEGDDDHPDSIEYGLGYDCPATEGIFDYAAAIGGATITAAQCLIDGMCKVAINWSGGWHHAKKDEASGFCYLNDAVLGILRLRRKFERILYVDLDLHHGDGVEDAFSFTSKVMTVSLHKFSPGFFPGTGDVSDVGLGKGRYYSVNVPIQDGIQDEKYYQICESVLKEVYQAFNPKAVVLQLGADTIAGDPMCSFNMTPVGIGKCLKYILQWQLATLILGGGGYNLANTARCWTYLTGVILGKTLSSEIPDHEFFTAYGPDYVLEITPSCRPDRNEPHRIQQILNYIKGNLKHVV
Description: Competitive inhibition of HDAC8 using KI-104 as substrate by fluorescence assay

Histone deacetylase 11 = molecular target: T3, Histone deacetylase 11 (Homo sapiens, UniProt Q96DB2)
T3 sequence (Q96DB2 whole entry): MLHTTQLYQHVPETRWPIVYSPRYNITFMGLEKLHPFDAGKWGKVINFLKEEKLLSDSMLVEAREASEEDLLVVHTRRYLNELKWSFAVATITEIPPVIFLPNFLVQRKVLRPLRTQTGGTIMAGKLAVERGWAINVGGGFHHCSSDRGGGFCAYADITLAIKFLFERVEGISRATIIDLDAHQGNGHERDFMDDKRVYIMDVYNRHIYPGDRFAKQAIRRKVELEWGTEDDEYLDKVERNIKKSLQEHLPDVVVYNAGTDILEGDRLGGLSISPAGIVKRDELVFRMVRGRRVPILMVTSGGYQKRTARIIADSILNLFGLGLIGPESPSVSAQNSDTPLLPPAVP
Description: Competitive inhibition of HDAC11 using KI-104 as substrate by fluorescence assay

Histone deacetylase 5 = Histone deacetylase 5 (Homo sapiens, UniProt Q9UQL6)
Sequence of Histone deacetylase 5 (Q9UQL6 whole entry): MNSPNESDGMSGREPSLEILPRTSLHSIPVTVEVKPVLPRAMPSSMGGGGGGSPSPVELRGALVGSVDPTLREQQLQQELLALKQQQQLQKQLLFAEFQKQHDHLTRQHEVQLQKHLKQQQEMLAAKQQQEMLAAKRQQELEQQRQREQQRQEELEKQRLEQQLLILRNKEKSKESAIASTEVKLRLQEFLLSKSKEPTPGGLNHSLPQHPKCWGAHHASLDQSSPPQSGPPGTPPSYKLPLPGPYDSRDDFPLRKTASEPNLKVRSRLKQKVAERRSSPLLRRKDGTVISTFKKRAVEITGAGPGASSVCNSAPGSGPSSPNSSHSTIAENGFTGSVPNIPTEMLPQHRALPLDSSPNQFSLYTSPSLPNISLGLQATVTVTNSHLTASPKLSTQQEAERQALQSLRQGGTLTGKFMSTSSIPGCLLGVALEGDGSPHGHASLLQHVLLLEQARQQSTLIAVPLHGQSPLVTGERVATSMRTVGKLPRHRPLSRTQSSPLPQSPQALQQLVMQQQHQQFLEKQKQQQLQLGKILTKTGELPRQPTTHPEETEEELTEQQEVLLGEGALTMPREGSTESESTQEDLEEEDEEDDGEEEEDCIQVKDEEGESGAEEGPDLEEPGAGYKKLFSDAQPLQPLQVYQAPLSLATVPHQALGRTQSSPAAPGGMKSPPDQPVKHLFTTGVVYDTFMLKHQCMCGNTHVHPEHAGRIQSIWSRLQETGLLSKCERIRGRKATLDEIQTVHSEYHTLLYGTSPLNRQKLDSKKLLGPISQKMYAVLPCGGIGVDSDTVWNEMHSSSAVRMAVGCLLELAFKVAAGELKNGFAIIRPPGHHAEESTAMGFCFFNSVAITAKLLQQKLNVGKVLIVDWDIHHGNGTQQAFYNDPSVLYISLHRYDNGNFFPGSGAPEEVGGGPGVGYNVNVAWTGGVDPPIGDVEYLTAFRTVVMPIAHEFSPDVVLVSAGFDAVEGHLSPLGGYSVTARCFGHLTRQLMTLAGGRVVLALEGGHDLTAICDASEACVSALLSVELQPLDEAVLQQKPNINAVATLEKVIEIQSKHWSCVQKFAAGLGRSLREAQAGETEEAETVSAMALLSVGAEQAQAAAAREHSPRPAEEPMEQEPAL
Description: Competitive inhibition of HDAC5 using KI-104 as substrate by fluorescence assay

Histone deacetylase 2 = Histone deacetylase 2 (Homo sapiens, UniProt Q92769)
Sequence of Histone deacetylase 2 (Q92769 whole entry): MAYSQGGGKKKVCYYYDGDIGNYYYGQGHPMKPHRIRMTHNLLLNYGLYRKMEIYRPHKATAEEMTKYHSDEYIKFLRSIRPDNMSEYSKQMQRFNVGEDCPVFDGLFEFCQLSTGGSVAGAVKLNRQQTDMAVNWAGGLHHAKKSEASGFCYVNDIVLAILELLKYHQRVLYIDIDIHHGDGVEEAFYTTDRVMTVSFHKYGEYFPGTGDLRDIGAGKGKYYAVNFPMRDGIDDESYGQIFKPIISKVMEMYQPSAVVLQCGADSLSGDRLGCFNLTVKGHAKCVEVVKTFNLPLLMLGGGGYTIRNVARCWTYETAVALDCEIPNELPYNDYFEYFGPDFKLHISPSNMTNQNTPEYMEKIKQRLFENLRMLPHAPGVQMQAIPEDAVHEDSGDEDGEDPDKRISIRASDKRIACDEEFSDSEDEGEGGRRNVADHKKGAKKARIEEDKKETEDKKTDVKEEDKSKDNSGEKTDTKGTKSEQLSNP
Description: Competitive inhibition of HDAC2 using KI-104 as substrate by fluorescence assay

[11] = Oral bioavailability in Wistar rat at 10 mg/kg; format: ADME, organism-based; settings: in vivo
Histone deacetylase 1 [12] = molecular target: T4, Histone deacetylase 1 (Homo sapiens, UniProt Q13547)
T4 sequence (Q13547 whole entry): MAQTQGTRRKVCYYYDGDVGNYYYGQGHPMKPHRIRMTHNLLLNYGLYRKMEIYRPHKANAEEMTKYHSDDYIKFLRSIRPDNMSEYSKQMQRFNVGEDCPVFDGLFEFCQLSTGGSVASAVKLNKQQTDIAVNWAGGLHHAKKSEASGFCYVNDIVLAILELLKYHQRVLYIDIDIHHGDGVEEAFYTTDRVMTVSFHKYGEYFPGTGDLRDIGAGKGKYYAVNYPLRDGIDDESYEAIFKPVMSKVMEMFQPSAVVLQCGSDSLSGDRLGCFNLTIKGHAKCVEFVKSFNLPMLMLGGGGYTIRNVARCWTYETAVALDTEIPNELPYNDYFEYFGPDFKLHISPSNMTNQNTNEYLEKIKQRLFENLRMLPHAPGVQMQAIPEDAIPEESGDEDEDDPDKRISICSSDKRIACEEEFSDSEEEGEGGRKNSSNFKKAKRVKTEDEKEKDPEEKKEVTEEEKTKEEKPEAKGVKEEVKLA
Description: Inhibition of full length recombinant HDAC1 using Fluor de Lys as substrate by fluorescence assay

A2780 = assay: Antiproliferative activity against human A2780 cells after 96 hrs by celltiter 96 assay; format: functional, cell-based; settings: A2780, 96 h
[13] = molecular target: T5, Polyamine deacetylase HDAC10 (Homo sapiens, UniProt Q969S8)
T5 sequence (Q969S8 whole entry): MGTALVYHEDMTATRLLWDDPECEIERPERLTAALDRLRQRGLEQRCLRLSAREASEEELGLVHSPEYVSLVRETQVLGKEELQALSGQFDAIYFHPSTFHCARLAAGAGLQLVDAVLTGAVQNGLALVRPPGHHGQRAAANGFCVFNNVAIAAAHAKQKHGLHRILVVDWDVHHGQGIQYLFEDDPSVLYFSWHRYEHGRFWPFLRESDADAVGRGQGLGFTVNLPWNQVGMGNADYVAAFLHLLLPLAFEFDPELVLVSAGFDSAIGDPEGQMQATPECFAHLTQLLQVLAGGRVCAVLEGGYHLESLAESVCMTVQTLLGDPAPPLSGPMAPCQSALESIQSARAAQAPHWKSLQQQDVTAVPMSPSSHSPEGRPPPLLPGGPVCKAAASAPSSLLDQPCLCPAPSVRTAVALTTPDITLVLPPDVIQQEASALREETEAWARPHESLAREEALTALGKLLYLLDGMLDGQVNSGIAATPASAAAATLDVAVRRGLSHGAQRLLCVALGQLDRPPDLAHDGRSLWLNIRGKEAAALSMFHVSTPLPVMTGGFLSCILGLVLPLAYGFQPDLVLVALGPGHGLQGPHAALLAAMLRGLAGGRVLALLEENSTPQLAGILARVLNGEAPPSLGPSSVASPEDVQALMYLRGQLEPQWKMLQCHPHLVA
Description: Competitive inhibition of HDAC10 using KI-104 as substrate by fluorescence assay

[14] = Toxicity in po dosed athymic nu/nu Harlan mouse with xenografted human HCT116 cells assessed as maximum tolerated administered qd for 21 days; format: organism-based, HCT-116; settings: in vivo
Histone deacetylase 1 [15] = molecular target: T4, Histone deacetylase 1; remark: listed apart in the source
Description: Competitive inhibition of HDAC1 using KI-104 as substrate by fluorescence assay

PC-3 = assay: Antiproliferative activity against human PC3 cells after 96 hrs by celltiter 96 assay; format: functional, cell-based; settings: PC-3, 96 h
Histone deacetylase 9 = Histone deacetylase 9 (Homo sapiens, UniProt Q9UKV0)
Sequence of Histone deacetylase 9 (Q9UKV0 whole entry): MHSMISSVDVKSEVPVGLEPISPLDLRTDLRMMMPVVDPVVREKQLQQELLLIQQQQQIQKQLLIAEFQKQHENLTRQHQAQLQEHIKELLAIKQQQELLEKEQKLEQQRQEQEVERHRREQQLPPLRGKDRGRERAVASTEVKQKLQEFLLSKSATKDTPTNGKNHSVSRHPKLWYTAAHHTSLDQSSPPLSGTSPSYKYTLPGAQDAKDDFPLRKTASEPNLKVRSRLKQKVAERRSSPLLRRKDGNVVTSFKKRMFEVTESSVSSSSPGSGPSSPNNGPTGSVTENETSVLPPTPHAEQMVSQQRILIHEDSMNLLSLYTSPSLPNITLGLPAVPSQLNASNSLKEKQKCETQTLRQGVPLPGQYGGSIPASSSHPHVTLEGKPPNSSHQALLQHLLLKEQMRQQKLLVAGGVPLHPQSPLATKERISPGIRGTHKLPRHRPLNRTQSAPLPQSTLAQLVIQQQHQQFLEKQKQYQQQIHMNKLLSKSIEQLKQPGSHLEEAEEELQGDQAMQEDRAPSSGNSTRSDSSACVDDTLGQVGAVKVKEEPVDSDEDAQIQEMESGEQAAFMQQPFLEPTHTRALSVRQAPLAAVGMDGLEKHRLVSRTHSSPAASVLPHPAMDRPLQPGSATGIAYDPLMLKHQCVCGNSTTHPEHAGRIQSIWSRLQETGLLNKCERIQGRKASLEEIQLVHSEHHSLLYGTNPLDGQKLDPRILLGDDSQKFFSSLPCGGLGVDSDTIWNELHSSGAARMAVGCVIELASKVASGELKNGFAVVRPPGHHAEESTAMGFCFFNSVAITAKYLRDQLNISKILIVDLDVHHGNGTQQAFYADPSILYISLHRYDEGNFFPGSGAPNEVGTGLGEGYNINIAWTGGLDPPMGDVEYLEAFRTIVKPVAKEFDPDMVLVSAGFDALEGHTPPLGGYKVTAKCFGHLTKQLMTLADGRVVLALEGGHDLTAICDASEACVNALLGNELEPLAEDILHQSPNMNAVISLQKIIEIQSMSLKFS
Description: Competitive inhibition of HDAC9 using KI-104 as substrate by fluorescence assay

Liver = assay: as §1; format: ADME, Microsome; settings: microsomes
Histone deacetylase 7 = Histone deacetylase 7 (Homo sapiens, UniProt Q8WUI4)
Description: Competitive inhibition of HDAC7 using KI-104 as substrate by fluorescence assay

Mus musculus [16] = assay: Toxicity in athymic nu/nu Harlan mouse xenografted with human HCT116 cells assessed as mouse survival at 100 mg/kg, po QD for 21 days measured on day 22; format: organism-based, HCT-116; set-up: dose 100 mg/kg, route oral; settings: in vivo, 504 h
HCT-116 [17] = assay: Antitumor activity against human HCT116 cells xenografted in athymic nu/nu Harlan mouse assessed as tumor growth inhibition at 50 mg/kg, po qd for 21 days measured on day 22; format: functional; settings: read-out: TGI
Mus musculus [18] = assay: Toxicity in athymic nu/nu Harlan mouse xenografted with human HCT116 cells assessed as mouse survival at 200 mg/kg, po QD for 21 days measured on day 22; format: organism-based, HCT-116; set-up: dose 200 mg/kg, route oral; settings: in vivo, 504 h
HCT-116 [19] = assay: Antitumor activity against human HCT116 cells xenografted in athymic nu/nu Harlan mouse assessed as tumor growth inhibition at 200 mg/kg, po qd for 21 days measured on day 22; format: functional; settings: read-out: TGI
Mus musculus [20] = assay: Toxicity in athymic nu/nu Harlan mouse xenografted with human HCT116 cells assessed as mouse survival at 50 mg/kg, po QD for 21 days measured on day 22; format: organism-based, HCT-116; set-up: dose 50 mg/kg, route oral; settings: in vivo, 504 h
HCT-116 [21] = assay: Antitumor activity against human HCT116 cells xenografted in athymic nu/nu Harlan mouse assessed as tumor growth inhibition at 100 mg/kg, po qd for 21 days measured on day 22; format: functional; settings: read-out: TGI

Compound | Papp B→A [1] [×10⁻⁶ cm/s] | half-life [2] [min] | half-life [3] [min] | solubility kinetic [5] [µM] | half-life [6] [min] | pKi (Histone deacetylase 4) | pKi (Histone deacetylase 3) | pIC50 (COLO 205) | pKi [9] | pIC50 (HCT-116 [10]) | pKi (Histone deacetylase 8) | pKi (Histone deacetylase 11) | pKi (Histone deacetylase 5) | pKi (Histone deacetylase 2) | pIC50 (Histone deacetylase 1 [12]) | pIC50 (A2780) | pKi [13] | pKi (Histone deacetylase 1 [15]) | pIC50 (PC-3) | pKi (Histone deacetylase 9) | other results
Cl.O=C(/C=C/c1ccc2c(c1)nc(CCc1ccccc1)n2CCN1CCCC1)NO | 27.7 | 4.3 | 18 | > 200 | 60 |  |  |  |  |  |  |  |  |  |  |  |  |  |  |  | logD ([4]; 1-octanol/sodium phosphate buffer, read-out: logD): 2.1; half-life [7]: 5 min; Papp A→B [8]: 3.01 ×10⁻⁶ cm/s
O=C(/C=C/c1ccc2c(c1)nc(CCc1ccccc1)n2CCN1CCCC1)NO | 27.7 | 4.3 | 18 | > 200 | ≥ 30 | 8.07 | 7.92 | 6.89 | 7.70 | 6.72 | 7.02 |  |  |  |  |  |  |  |  |  | logD ([4]; octanol/water): 2.1; half-life [7]: 5 min; Papp A→B [8]: 3.01 ×10⁻⁶ cm/s
CCCCc1nc2cc(/C=C/C(=O)NO)ccc2n1CCNC(C)C |  |  |  |  |  | 7.96 | 7.57 | 6.33 | 6.65 | 6.47 | 7.11 | 7.74 | 7.96 | 7.48 | 7.38 | 6.42 | 7.47 | 7.59 | 6.64 | 7.52 | bioavailability [11]: 9%; MTD at 504 h [14]: 200 mg/kg
CN(C)CC(C)(C)Cn1c(CCc2ccccc2)nc2cc(/C=C/C(=O)NO)ccc21 |  |  |  |  | 60 | 8.00 | 7.96 | 6.96 | 7.64 |  |  | 7.80 | 7.80 | 7.41 | 7.38 |  | 7.64 | 7.82 |  | 7.68 | t1/2 (Liver): 17 min
O=C(/C=C/c1ccc2c(c1)nc(CCc1ccccc1)n2CCN1CCCCC1)NO |  |  |  |  | 90 | 8.06 | 7.96 | 7.06 | 7.57 |  |  | 7.85 | 7.74 | 7.41 | 7.64 |  | 7.64 | 7.92 |  | 7.62 | t1/2 (Liver): 35 min
CCCCCCc1nc2cc(/C=C/C(=O)NO)ccc2n1CCNC(C)C |  |  |  |  |  | 8.18 | 7.82 | 6.77 | 6.46 | 6.68 | 7.24 | 7.85 | 8.18 | 7.74 | 7.44 | 6.70 | 7.54 | 7.70 | 6.77 | 7.80 | pKi (Histone deacetylase 7): 7.39
CCCCCCc1nc2cc(/C=C/C(=O)NO)ccc2n1CCNCC.Cl.Cl | 10.5 | 1.1 | 48 | > 200 | 51 |  |  |  |  |  |  |  |  |  |  |  |  |  |  |  | Activity (Mus musculus [16]): Non-toxic; inhibition in vivo at 50 mg/kg (HCT-116 [17]): -9%; Activity (Mus musculus [18]): Non-toxic; half-life [7]: 1.6 min; inhibition in vivo at 200 mg/kg (HCT-116 [19]): 41%; Activity (Mus musculus [20]): Non-toxic; Papp A→B [8]: 0.97 ×10⁻⁶ cm/s; inhibition in vivo at 100 mg/kg (HCT-116 [21]): -7%
CCCCCCc1nc2cc(/C=C/C(=O)NO)ccc2n1CCNCC |  |  |  |  |  | 8.21 | 7.89 | 6.72 | 6.55 | 6.64 | 7.27 | 7.89 | 8.17 | 7.74 | 7.70 | 6.62 | 7.55 | 7.96 | 6.68 | 7.85 | bioavailability [11]: 1.4%; MTD at 504 h [14]: 200 mg/kg
CCCCCc1nc2cc(/C=C/C(=O)NO)ccc2n1CCNC(C)C |  |  |  |  |  | 8.44 | 8.00 | 6.55 | 6.64 | 6.59 | 7.03 | 8.38 | 8.25 | 7.85 | 7.52 | 6.64 | 7.72 | 8.00 | 6.92 | 8.36 | 
